According to patent publication US4188321A, “25-Desacetyl rifamycins” (Gruppo Lepetit S.p.A., priority 1966, dated 1980):
Converted amounts (≈) assume the structure as drawn. Where two headings read alike, the source gives them in different places.

Experiments:
[1] = solubility in buffer solution; type: physicochemical; details: pH 7.5, aqueous buffer
Experimental: Said solubilities are given in g. of rifamycin % ml. of buffer solution (pH=7,5 and t=22° C.). DA means desacetyl.

in vivo = details: mouse

solubility ([1]; buffer) [µg/mL]	Structure (SMILES)	solubility ([1]; buffer solution, pH = 7,5, 22° C., read-out: Solubility) [µg/mL]	LD50 (in vivo; ip, acute toxicity, mice) [mg/kg]	LD50 (in vivo; iv) [mg/kg]
–	COC1C=COC2(C)Oc3c(C)c(O)c4c(O)c(c(C=NN5CCN(C)CC5)c(O)c4c3C2=O)NC(=O)C(C)=CC=CC(C)C(O)C(C)C(O)C(C)C(OC(C)=O)C1C (stereo not shown) [3-(4-methyl-piperazinyl-iminomethyl)-rifamycin SV, reference compound]	2850 (≈ 3460 µM)	460	–
420 (≈ 536 µM)	CCN(CC)Cc1c2c(O)c3c(O)c(C)c4c(c3c1O)C(=O)C(C)(OC=CC(OC)C(C)C(OC(C)=O)C(C)C(O)C(C)C(O)C(C)C=CC=C(C)C(=O)N2)O4 (stereo not shown) [3-diethylaminomethyl-rifamycin SV, reference compound]	–	–	–
150 (≈ 199 µM)	CON=Cc1c2c(O)c3c(O)c(C)c4c(c3c1O)C(=O)C(C)(OC=CC(OC)C(C)C(OC(C)=O)C(C)C(O)C(C)C(O)C(C)C=CC=C(C)C(=O)N2)O4 (stereo not shown) [3-methoximinomethyl-rifamycin SV, reference compound]	–	–	–
60 (≈ 76.8 µM)	COC1C=COC2(C)Oc3c(C)c(O)c4c(O)c(c(CN5CCCC5)c(O)c4c3C2=O)NC(=O)C(C)=CC=CC(C)C(O)C(C)C(O)C(C)C(OC(C)=O)C1C (stereo not shown) [3-pyrrolidino-methyl-rifamycin SV, reference compound]	–	–	–
1260 (≈ 1700 µM)	CCN(CC)Cc1c2c(O)c3c(O)c(C)c4c(c3c1O)C(=O)C(C)(OC=CC(OC)C(C)C(O)C(C)C(O)C(C)C(O)C(C)C=CC=C(C)C(=O)N2)O4 (stereo not shown) [25-DA-3-diethylaminomethyl-rifamycin SV, 25-desacetyl-3-diethylaminomethyl-rifamycin SV]	–	–	–
2800 (≈ 3790 µM)	COC1C=COC2(C)Oc3c(C)c(O)c4c(O)c(c(CN5CCCC5)c(O)c4c3C2=O)NC(=O)C(C)=CC=CC(C)C(O)C(C)C(O)C(C)C(O)C1C (stereo not shown) [25-DA-3-pyrrolidino-methyl-rifamycin SV]	–	–	–
–	CCN(CC)C(=O)COc1cc2c(O)c3c(O)c(C)c4c(c13)C(=O)C(C)(OC=CC(OC)C(C)C(O)C(C)C(O)C(C)C(O)C(C)C=CC=C(C)C(=O)N2)O4 (stereo not shown) [25-DA-rifamycin B diethylamide]	–	–	600

Structure (SMILES)	solubility ([1]; buffer) [µg/mL]	solubility ([1]; buffer solution, pH = 7,5, 22° C., read-out: Solubility) [µg/mL]	LD50 (in vivo; ip, acute toxicity, mice) [mg/kg]	LD50 (in vivo; iv) [mg/kg]
COC1C=COC2(C)Oc3c(C)c(O)c4c(O)c(c(C=O)c(O)c4c3C2=O)NC(=O)C(C)=CC=CC(C)C(O)C(C)C(O)C(C)C(OC(C)=O)C1C (stereo not shown) [3-formyl-rifamycin SV, reference compound]	6400 (≈ 8820 µM)	–	300	–
COC1C=COC2(C)Oc3c(C)c(O)c4c(O)c(c(C=NN5CCN(C)CC5)c(O)c4c3C2=O)NC(=O)C(C)=CC=CC(C)C(O)C(C)C(O)C(C)C(O)C1C (stereo not shown) [25-DA-3-(4-methyl-piperazinyl-iminomethyl)-rifamycin SV]	7600 (≈ 9730 µM)	–	850	–
COC1C=COC2(C)Oc3c(C)c(O)c4c(O)c(c(C=O)c(O)c4c3C2=O)NC(=O)C(C)=CC=CC(C)C(O)C(C)C(O)C(C)C(O)C1C (stereo not shown) [25-DA-3-formyl-rifamycin SV]	34300 (≈ 50200 µM)	–	550	–
CON=Cc1c2c(O)c3c(O)c(C)c4c(c3c1O)C(=O)C(C)(OC=CC(OC)C(C)C(O)C(C)C(O)C(C)C(O)C(C)C=CC=C(C)C(=O)N2)O4 (stereo not shown) [25-DA-3-methoximinomethyl-rifamycin SV]	340 (≈ 477 µM)	–	560	–
